Where a name gives a salt, the structure may show the parent alone. Read-outs that look alike come from different tables or passages of the source.
Assay: Equilibrium solubility in aqueous solutions containing different concentrations of Captisol
Assay type: physicochemical
Conditions: aqueous solution containing Captisol, 20 °C, thermodynamic from solid, free form equivalent
Method: Captisol® improves the solubility of the compound of Formula I in free base form, HCl salt and tosylate salt. Solubility of the above compounds was determined by equilibrating the powder with aqueous solutions containing different concentration of Captisol® at ambient temperature (20° C.).
The solutions were prepared in accordance with methods known to one of skill in the art.

Compound: C[C@@H](OC[C@@]1(c2ccccc2)CC[C@]2(CCC(=O)N2)CN1)c1cc(C(F)(F)F)cc(C(F)(F)F)c1 [Compound I HCl salt]
- solubility (pH 5, aqueous buffer, Captisol 0 % w/v, pH 5 (NaOH adjusted), ambient temperature (20° C.), read-out: Solubility of Compound I HCl salt at pH 5 (pH adjusted by NaOH)): 50 µg/mL
- solubility (pH 5, aqueous with cosolvent or surfactant or cyclodextrin, Captisol 2 % w/v, pH 5 (NaOH adjusted), ambient temperature (20° C.), read-out: Solubility of Compound I HCl salt at pH 5 (pH adjusted by NaOH)): 3500 µg/mL
- solubility (pH 5, aqueous with cosolvent or surfactant or cyclodextrin, Captisol 5 % w/v, pH 5 (NaOH adjusted), ambient temperature (20° C.), read-out: Solubility of Compound I HCl salt at pH 5 (pH adjusted by NaOH)): 4700 µg/mL
- solubility (pH 5, aqueous with cosolvent or surfactant or cyclodextrin, Captisol 10 % w/v, pH 5 (NaOH adjusted), ambient temperature (20° C.), read-out: Solubility of Compound I HCl salt at pH 5 (pH adjusted by NaOH)): 10000 µg/mL

Compound: C[C@@H](OC[C@@]1(c2ccccc2)CC[C@]2(CCC(=O)N2)CN1)c1cc(C(F)(F)F)cc(C(F)(F)F)c1 [Compound I Tosylate salt]
- solubility (pH 5, aqueous buffer, Captisol 0 % w/v, pH 5 (NaOH adjusted), 20° C., read-out: Solubility of Compound I Tosylate salt at pH 5 (pH adjusted by NaOH)): 150 µg/mL
- solubility (pH 5, aqueous with cosolvent or surfactant or cyclodextrin, Captisol 10 % w/v, pH 5 (NaOH adjusted), 20° C., read-out: Solubility of Compound I Tosylate salt at pH 5 (pH adjusted by NaOH)): 940 µg/mL
- solubility (pH 5, aqueous with cosolvent or surfactant or cyclodextrin, Captisol 20 % w/v, pH 5 (NaOH adjusted), 20° C., read-out: Solubility of Compound I Tosylate salt at pH 5 (pH adjusted by NaOH)): 1800 µg/mL
- solubility (pH 5, aqueous with cosolvent or surfactant or cyclodextrin, Captisol 40 % w/v, pH 5 (NaOH adjusted), 20° C., read-out: Solubility of Compound I Tosylate salt at pH 5 (pH adjusted by NaOH)): 4100 µg/mL

Compound: C[C@@H](OC[C@@]1(c2ccccc2)CC[C@]2(CCC(=O)N2)CN1)c1cc(C(F)(F)F)cc(C(F)(F)F)c1 [Compound I free base]
- solubility (pH 5.2, aqueous buffer, Captisol 0 % w/v, pH 5.2 citric acid buffered, 20° C., read-out: Solubility of Compound I free base at pH 5.2 (citric acid buffered)): 170 µg/mL
- solubility (pH 5.2, aqueous with cosolvent or surfactant or cyclodextrin, Captisol 2 % w/v, pH 5.2 citric acid buffered, 20° C., read-out: Solubility of Compound I free base at pH 5.2 (citric acid buffered)): 2200 µg/mL
- solubility (pH 5.2, aqueous with cosolvent or surfactant or cyclodextrin, Captisol 5 % w/v, pH 5.2 citric acid buffered, 20° C., read-out: Solubility of Compound I free base at pH 5.2 (citric acid buffered)): 4600 µg/mL
- solubility (pH 5.2, aqueous with cosolvent or surfactant or cyclodextrin, Captisol 10 % w/v, pH 5.2 citric acid buffered, 20° C., read-out: Solubility of Compound I free base at pH 5.2 (citric acid buffered)): 7200 µg/mL
- solubility (pH 5.2, aqueous with cosolvent or surfactant or cyclodextrin, Captisol 20 % w/v, pH 5.2 citric acid buffered, 20° C., read-out: Solubility of Compound I free base at pH 5.2 (citric acid buffered)): 12000 µg/mL
- solubility (pH 7.2, aqueous buffer, Captisol 0 % w/v, pH 7.2 phosphate buffered, 20° C., read-out: Solubility of Compound I free base at pH 7.2 (phosphate buffered)): 2 µg/mL
- solubility (pH 7.2, aqueous with cosolvent or surfactant or cyclodextrin, Captisol 2 % w/v, pH 7.2 phosphate buffered, 20° C., read-out: Solubility of Compound I free base at pH 7.2 (phosphate buffered)): 50 µg/mL
- solubility (pH 7.2, aqueous with cosolvent or surfactant or cyclodextrin, Captisol 5 % w/v, pH 7.2 phosphate buffered, 20° C., read-out: Solubility of Compound I free base at pH 7.2 (phosphate buffered)): 150 µg/mL
- solubility (pH 7.2, aqueous with cosolvent or surfactant or cyclodextrin, Captisol 10 % w/v, pH 7.2 phosphate buffered, 20° C., read-out: Solubility of Compound I free base at pH 7.2 (phosphate buffered)): 290 µg/mL
- solubility (pH 7.2, aqueous with cosolvent or surfactant or cyclodextrin, Captisol 20 % w/v, pH 7.2 phosphate buffered, 20° C., read-out: Solubility of Compound I free base at pH 7.2 (phosphate buffered)): 610 µg/mL
